Paper PMC13379085 (PLOS Neglected Tropical Diseases, 2026)

Target: T1, lysozyme (Homo sapiens, UniProt P61626)
T1 sequence (P61626 19-148): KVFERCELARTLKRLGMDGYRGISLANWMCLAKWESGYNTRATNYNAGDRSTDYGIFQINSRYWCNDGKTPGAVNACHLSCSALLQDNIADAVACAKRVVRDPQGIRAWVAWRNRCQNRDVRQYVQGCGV
Assay: Thermal proteome profiling (TPP) in Leishmania infected macrophage lysate
Type: binding
Set-up: endogenous in cells; host or cells: PMA-differentiated THP-1 macrophages infected with L. mexicana (lysate)
Settings: 100 µM 197 in L. mexicana infected THP-1 lysate
Procedure: To generate cell lysate, ten million THP-1 cells were plated overnight in a 10 cm dish, then differentiated with 150 nM phorbol 12-myristate 13-acetate (PMA) for 72 hours. The resulting macrophages were infected with L. mexicana promastigotes at a multiplicity of infection of 10 and incubated for 18 hours. After infection, cells were washed three times with PBS to remove extracellular promastigotes. Cells were then collected by scraping and pelleted with centrifugation. The cell pellet was resuspended in phosphate buffered saline and subjected to five freeze-thaw cycles. Samples were centrifuged 14,000g x 10 minutes to remove cellular debris. Protein concentration of supernatant was determined by BCA assay and cell lysate was stored at -80 ° C until further use.
The cell lysate was divided into two portions. One portion was spiked with 197 in DMSO to generate the ‘with ligand’ sample; and the other portion was spiked with DMSO to generate the ‘without ligand’ sample. The final concentration of 197 in the ‘with ligand’ sample was 100 µM, and both the without and with ligand samples contained 1% DMSO. The with and without samples were each subjected five replicate one-pot TPP analyses like that previously described. […]

## O=C(CNCc1cccc(F)c1)Nc1ccc(-n2cc(C(F)(F)F)nc2-c2ccc(-c3ccc(C(F)(F)F)cc3)cc2)cc1 [Compound 197]
  TPP z-score for lysozyme: 4.32
